For assay [1], the target named is T1, Plasma Kallikrein (Homo sapiens, UniProt P03952). The assay can be described thus: Plasma kallikrein activity in pooled human plasma. The format is biochemical. Also noted: Plasma Kallikrein activity was also measured in pooled human plasma; from tissue; host or cells: pooled human plasma. The following applies: Z-FR-AMC substrate, activated with 10% Actin FS solution, 10 minutes, read-out: Pooled Human Plasma PKal IC50. As for the experimental part: (§1) Plasma kallikrein protease inhibition assay. Two methods for determining the IC50 of a test compound against Plasma Kallikrein are provided.
T1 sequence (P03952 391-638 limits assumed): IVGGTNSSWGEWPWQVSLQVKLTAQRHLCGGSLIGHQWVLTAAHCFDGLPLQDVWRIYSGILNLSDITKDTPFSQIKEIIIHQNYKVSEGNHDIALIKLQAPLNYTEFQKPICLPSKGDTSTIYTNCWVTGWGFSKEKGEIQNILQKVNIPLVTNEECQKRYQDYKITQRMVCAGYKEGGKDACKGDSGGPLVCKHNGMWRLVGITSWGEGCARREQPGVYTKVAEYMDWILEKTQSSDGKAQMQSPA
T1 sequence (P03952 20-390 partner limits assumed): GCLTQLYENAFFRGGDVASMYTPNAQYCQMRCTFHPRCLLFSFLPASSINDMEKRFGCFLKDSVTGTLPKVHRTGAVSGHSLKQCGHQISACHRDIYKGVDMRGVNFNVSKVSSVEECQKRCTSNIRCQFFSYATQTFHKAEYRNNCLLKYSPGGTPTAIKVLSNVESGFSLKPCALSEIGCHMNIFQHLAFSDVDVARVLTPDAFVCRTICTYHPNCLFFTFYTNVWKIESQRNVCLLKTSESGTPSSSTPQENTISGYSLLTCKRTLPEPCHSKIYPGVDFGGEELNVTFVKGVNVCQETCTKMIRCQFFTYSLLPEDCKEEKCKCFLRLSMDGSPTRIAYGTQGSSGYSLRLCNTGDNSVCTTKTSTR
Second, Plasma Kallikrein activity was also measured in pooled human plasma. First, a 10% Actin FS solution was prepared in assay buffer. Each test compound was dissolved in DMSO and delivered to the reaction mixture along with Z-FR-AMC substrate and pooled human plasma. The multi-well reaction plate was incubated for five minutes at room temperature. To initiate the reaction, the 10% Actin FS solution was added to each well, and kinetic measurements were taken at Ex/Em at 355/460 nm. The fluorescence signal was recorded every 30 seconds for a total of 10 minutes.

Assay [2] addresses T1, Plasma Kallikrein. The assay is described as follows: Plasma kallikrein protease inhibition assay, purified enzyme. The format is biochemical. Also noted: NS0-derived Gly20-Ala638, with a C-terminal 60-His tag; 60-His (so in the source) (C); purchased R&D Systems 2497-SE; host or cells: Mouse myeloma cell line, NS0. The following applies: 10 μM Z-FR-AMC substrate, 20-minute pre-incubation, pH 8.0/8.5, room temperature, read-out: Purified PKal IC50. As for the experimental part: as §1
In the first method was used a reaction buffer composed of 25 mM Tris-HCl (pH 8.0), 100 mM NaCl (pH 8.5), 0.01% Brij35, and 1% DMSO (final). The enzyme used was Plasma Kallikrein (R&D Systems Cat #2497-SE; Recombinant Human Plasma Kallikrein, expressed in Mouse myeloma cell line, NS0-derived Gly20-Ala638, with a C-terminal 60-His tag. MW=70 kDa).
The enzyme was activated by dilution to 200 μg/mL in activation buffer (100 mM Tris, 10 mM CaCl2, 150 mM NaCl, pH 7.5 (TCN), and then combined with an equal volume of 20 μg/mL thermolysin to form a reaction buffer. Each test compound was then dissolved in DMSO and delivered into the reaction buffer. The reaction was initiated by delivering a substrate solution containing 10 μM Z-FR-AMC (Enzo Cat #P-139; AMC: 7-Amino-4-methylcoumarin) into the reaction well after a 20-minute pre-incubation period.
Measurement was conducted with En Vision (PE) with excitation and emission wavelengths of 355 nm and 460 nm, respectively. […]. The enzyme activities were monitored every 5 minutes as a time-course measurement of the increase in signal from fluorescently labeled peptide substrate for 120 minutes at room temperature.
Data was analyzed by taking slope*(signal/time) of the linear portion of measurements. Slope was calculated using Excel, and curve fits were performed using Prism software.

The text below walks through data of US20260327193A1, “INHIBITORS OF PLASMA KALLIKREIN” (Rezolute, Inc., priority 2022, published 2026).

pIC50: −log10 of the molar value. A value given as a limit tells only on which side of the number the result lay.

The term pIC50 denotes the IC50 on a negative log10 scale, so that one unit is a factor of ten.

For the compound `COCCc1ccc(Cn2cc(C(=O)NCc3ccc(C(=N)N)c(F)c3)cn2)cc1` [Example 73, N-(4-carbamimidoyl-3-fluorobenzyl)-1-(4-(2-methoxyethyl)benzyl)-1H-pyrazole-4-carboxamide], the negative-log IC50 (pIC50) on Plasma Kallikrein [1] is over 7.00; on Plasma Kallikrein [2], 8.00 to 9.00.

Regarding `N#CCc1ccc(Cc2cc(C(=O)NCc3ccc(C(=N)N)cc3)sn2)cc1` [Example 11], the pIC50 at Plasma Kallikrein [2] is 8.00 to 9.00. Consider `CNC(=O)Cc1ccc(Cn2cc(C(=O)NCc3ccc(C(=N)N)c(F)c3)cn2)cc1` [Example 74, N-(4-carbamimidoyl-3-fluorobenzyl)-1-(4-(2-(methylamino)-2-oxoethyl)benzyl)-1H-pyrazole-4-carboxamide], for which the negative-log IC50 (pIC50) is 6.00 to 7.00 on Plasma Kallikrein [1] and 8.00 to 9.00 on Plasma Kallikrein [2]. As to `N#CCc1ccc(Cn2ncc(C(=O)NCc3ccc(C(=N)N)cc3)c2C2CC2)cc1` [Example 86, N-(4-carbamimidoylbenzyl)-1-(4-(cyanomethyl)benzyl)-5-cyclopropyl-1H-pyrazole-4-carboxamide], the results for the negative logarithm of the IC50 (pIC50) at Plasma Kallikrein [1] and on Plasma Kallikrein [2] were 6.00 to 7.00 and 7.00 to 8.00, respectively.

For the compound `CC(C)(C#N)c1ccc(Cn2cc(C(=O)NCc3cc(F)c(C(=N)N)c(F)c3)cn2)cc1` [Example 44, N-(4-carbamimidoyl-3,5-difluorobenzyl)-1-(4-(2-cyanopropan-2-yl)benzyl)-1H-pyrazole-4-carboxamide], the negative-log IC50 (pIC50) on Plasma Kallikrein [1] was under 6.00; on Plasma Kallikrein [2], under 7.00. Regarding `CC(C#N)c1ccc(Cn2cc(C(=O)NCc3ccc(C(=N)N)cc3)cn2)cc1` (centres unmarked) [Example 5, N-(4-carbamimidoylbenzyl)-1-(4-(1-cyanoethyl)benzyl)-1H-pyrazole-4-carboxamide], at Plasma Kallikrein [2], the pIC50 is 8.00 to 9.00. As for `COCc1c(C(=O)NCc2ccc(C(=N)N)cc2)cnn1Cc1ccc(CC#N)cc1` [Example 85, N-(4-carbamimidoylbenzyl)-1-(4-(cyanomethyl)benzyl)-5-(methoxymethyl)-1H-pyrazole-4-carboxamide], the values for the pIC50 on Plasma Kallikrein [1] and at Plasma Kallikrein [2] were 6.00 to 7.00 and 7.00 to 8.00, respectively. `CC(C)(C#N)c1ccc(Cn2ncc(C(=O)NCc3ccc(C(=N)N)cc3)c2C2CC2)cc1` [Example 83, N-(4-carbamimidoylbenzyl)-1-(4-(2-cyanopropan-2-yl)benzyl)-5-cyclopropyl-1H-pyrazole-4-carboxamide]: the pIC50 at Plasma Kallikrein [1] was 6.00 to 7.00; at Plasma Kallikrein [2], 7.00 to 8.00. Taken in the same sequence, the figures for `COCc1c(C(=O)NCc2ccc(C(=N)N)c(F)c2)cnn1Cc1ccc(CC#N)cc1` [Example 75, N-(4-carbamimidoyl-3-fluorobenzyl)-1-(4-(cyanomethyl)benzyl)-5-(methoxymethyl)-1H-pyrazole-4-carboxamide] were under 6.00 and under 7.00. As to `N#CCc1ccc(Cc2cc(C(=O)NCc3ccc(C(=N)N)cc3)on2)cc1` [Example 10, N-(4-carbamimidoylbenzyl)-3-(4-(cyanomethyl)benzyl) isoxazole-5-carboxamide], the pIC50 on Plasma Kallikrein [2] is 8.00 to 9.00. In the case of `N#Cc1ccn(-c2ccc(Cn3cc(C(=O)NCc4ccc(C(=N)N)cc4)cn3)cc2)c1` [Example 25, N-(4-carbamimidoylbenzyl)-1-(4-(3-cyano-1H-pyrrol-1-yl)benzyl)-1H-pyrazole-4-carboxamide], the figures for the pIC50 on Plasma Kallikrein [1] and on Plasma Kallikrein [2] were over 7.00 and over 9.00, respectively. Taken in the same sequence, the figures for `N#Cc1ccc(Cc2ccc(Cn3cc(C(=O)NCc4ccc(C(=N)N)cc4)cn3)cc2)cc1` [Example 14, N-(4-carbamimidoylbenzyl)-1-(4-(4-cyanobenzyl)benzyl)-1H-pyrazole-4-carboxamide] were 6.00 to 7.00 and over 9.00. On the same counts, the results for `COCCc1cccc(Cn2cc(C(=O)NCc3ccc(C(=N)N)cc3)cn2)c1` [Example 69, N-(4-carbamimidoylbenzyl)-1-(3-(2-methoxyethyl)benzyl)-1H-pyrazole-4-carboxamide] are over 7.00 and 8.00 to 9.00.
